Consider one compound from patent publication US11767286B2, “Phenylpropionate compound, preparation method for same, and applications thereof” (SUZHOU PHARMAVAN CO., LTD, priority 2017, dated 2023).

The assay has as its system SD rat model of focal ischemia-reperfusion. Put plainly: Pharmacodynamic (administration) time window in SD rat model of focal ischemia-reperfusion (MCAO). The format is in vivo, SD rats. The following applies: for Score of Symptoms of Neurological Deficits: 48 h, modified Bederson 5-point scale; for Infarction area: evaluated after 48 h, mean ± standard error. The method, then: In this example, Compound A was measured for a pharmacodynamic time window by a method described below.
Trial method: A cerebral ischemia reperfusion model of middle cerebral artery occlusion (MCAO) was prepared by an internal carotid artery suture method. An animal was anesthetized with 10% chloral hydrate (3.6 mL/kg) and then fixed on an operating table in a supine position. Its skin was disinfected, and a midline incision was made on the neck. The right common carotid artery, external carotid artery, and internal carotid artery were separated, the vagus nerve was gently striped off, and the external carotid artery was ligated and cut. The common carotid artery was clamped at the proximal end. […] The nylon thread was advanced through the bifurcation of the common carotid artery into the internal carotid artery, and then was slowly inserted until there was slight resistance (about 20 mm from the bifurcation) to block all the blood supply to the middle cerebral artery. 2 h after cerebral ischemia, the nylon thread was gently pulled out to restore blood supply for reperfusion, and the neck skin was sutured and disinfected. The animal was put back in a cage and raised. During the modeling operation, animals with abnormal conditions due to anesthesia, surgery, etc. were excluded, and successfully modeled animals were randomly grouped. Schemes were set according to trial doses, and drug treatment was given 3 h, 4 h, and 5 h after cerebral ischemia-reperfusion. Death conditions were recorded every day after the surgery, and indicators were evaluated after 48 h. In the whole trial process, general conditions were observed, mainly including: death, coma, breathing, urine and feces traits, hair colors, mental status, vomiting and vomitus, bleeding, convulsion, spasm, etc. Abnormal animals due to unexpected factors were excluded. Finally, unblinding was conducted by a person who made blind trials.
Evaluated indicator: (1) Evaluation of symptoms of neurological deficits: The symptoms of neurological deficits were evaluated by using a modified Bederson 5-point scale. A single-blind method was used for evaluating the symptoms of neurological deficits in rats with brain trauma. That is, a trial designer marked animals in accordance with groups, and an experimenter who scored the symptoms of neurological deficits had no knowledge of how the animals were grouped. After scoring was completed, the scorer submitted scoring results for various marks to the designer, and the designer performed unblinding to obtain scores of animals in each trial group. (2) Measurement of cerebral infarction area: A method reported in the literature was used. An animal was anesthetized with 10% chloral hydrate and decapitated to collect brain. The olfactory bulb, cerebellum and lower brain stem were removed. Blood stains on the surface of the brain were rinsed with normal saline, the residual water stains on the surface were absorbed, and the brain was placed at −80° C. for 7 min. After the brain was taken out, a coronal section was immediately made at downwards and vertical to the sight intersection plane, and brain slices were made every 2 mm backwards. Brain slices were placed in a TTC (20 g/L) dye solution prepared with 0.9% normal saline, and incubated at 37° C. for 90 min. Normal brain tissues were stained deep red, and ischemic brain tissues were pale-white. After rinsed with normal saline, the brain sections were quickly arranged in order from front to back, the residual water stains on the surface were absorbed to dryness, and pictures were taken. Image analysis software was used for statistics on the pictures. Ischemic area (white region) on the right side and total area on the right side were delineated, and a percentage of the cerebral infarction area was calculated by the following formula: […]
Statistical analysis: Quantitative data is expressed as mean value±standard error. […]

The mark [1] stands for this setting: drug given 3 h after reperfusion.
Setting [2] is: drug given 4 h after reperfusion.
The mark [3] stands for this setting: drug given 5 h after reperfusion.

`COc1cc(CCC(=O)O[C@H]2C[C@H]3CC[C@]2(C)C3(C)C)cc(F)c1O` [Compound A]: the treatment time window result (after ischemia (2 h ischemia then reperfusion)) was “not less than 6 h”. Also, the “Score of Symptoms of Neurological Deficits” value by setting is: under setting [1], 2.04 ± 0.12; under setting [2], 2.13 ± 0.14; under setting [3], 2.42 ± 0.17. The Infarction area by setting is: under setting [1], 23.56 ± 2.86 %; under setting [2], 24.54 ± 2.53 %; under setting [3], 32.43 ± 2.13%.
